Experimental findings from ChEMBL document CHEMBL1127935, “Synthesis and antiproliferative activity of 15-oxoprostaglandins: Contribution of the -chain enone group to cytotoxicity” (Bioorg Med Chem Lett, 1994) are described below.

Molecules are shown by their SMILES.

For the assay, the system named is K562. The assay is described as follows: In vitro antiproliferative activity was measured on human leukemia K562 cells. It is filed as functional, cell-based.
Usually IC50 stands for the point on the concentration scale where inhibition reaches its midpoint. Lower therefore signals higher potency. As for `CCCCCC(=O)/C=C/[C@]1(O)CC(=O)C=C1C/C=C\CCCC(=O)OC`, it took 6.6 µM to reach half-maximal inhibition (IC50).
To `CCCCCC(=O)/C=C/[C@H]1[C@H](O)CC(=O)[C@@H]1C/C=C\CCCC(=O)OC` belongs 28 µM; to `CCCCCC(=O)/C=C/C1[C@H](O)C[C@H](O)[C@@H]1C/C=C\CCCC(=O)OC` (stereo not given in full), 61 µM; to `CCCCC[C@H](O)/C=C/C1[C@H](O)C[C@H](O)[C@@H]1C/C=C\CCCC(=O)OC` (stereo not given in full), 99 µM.
To `CCCCC[C@H](O)/C=C/[C@]1(O)C[C@@H](O)C=C1C/C=C\CCCC(=O)OC` belongs 201 µM.
As for `CCCCC[C@H](O)/C=C/C1[C@H](O)CC(=O)[C@@H]1C/C=C\CCCC(=O)OC` (stereo not given in full), the figure is 41 µM; as for `CCCCCC(=O)/C=C/[C@]1(O)C[C@@H](O)C=C1C/C=C\CCCC(=O)OC`, 20 µM; as for `CCCCCC(=O)/C=C/C1[C@H](O)C[C@H](O)[C@@H]1C/C=C\CCCC(=O)O` (stereo not given in full), 362 µM.
For `CCCCC[C@H](O)/C=C/[C@H]1[C@H](O)CC(=O)[C@@H]1C/C=C\CCCC(=O)O` [DINOPROSTONE], the IC50 was determined as 63 µM.
To `CCCCC[C@H](O)/C=C/[C@@H]1[C@@H](C/C=C\CCCC(=O)O)[C@@H](O)C[C@H]1O` [DINOPROST] belongs more than 700 µM.
